Results: patent publication US20240391871A1, “SUBSTITUTED HYDROXYMETHYL PYRROLIDINES AND MEDICAL USES THEREOF” (ATROGI AB, priority 2021, published 2024)
Structures can show the parent of a compound that is named as a salt.

Key:
[1] = test system: Intracellular cAMP levels; test: Measurement of intracellular cAMP levels in differentiated L6 cells; format: cell-based; details: compound 1×10^−5 M, 15 min; for Emax at 10 µM: Rattus norvegicus, L6, 0.25 h, read-out: Biological example 2: intracellular cAMP levels, activity compared to that of isoproterenol
Description: (§1) L6-myoblasts were grown in Dulbecco's Modified Eagle's Medium (DMEM) containing 1 g/L glucose supplemented with 10% fetal bovine serum, 2 mM L-Glutamine, 50 U/mL penicillin, 50 μg/mL streptomycin and 10 mM HEPES. Cells were plated at 1×10^5 cells per mL in 24-well plates. After reaching 90% confluence the cells were grown in medium containing 2% FBS for 7 days where upon cells differentiated into myotubes.
Differentiated cells were serum-starved overnight and stimulated with an agonist, final concentration 1×10^−5 M, for 15 min in stimulation buffer (HBSS supplemented with 1% BSA, 5 mM HEPES and 1 mM IBMX, pH 7.4). The medium was aspirated and 100 μL of 95% EtOH was added to each well of the 24-well plate and cells were kept at −20° C. overnight. The EtOH was allowed to evaporate and 500 μL of lysis buffer (1% BSA, 5 mM HEPES and 0.3% Tween-20, pH 7.4) was added to each well. The plate was kept at −80° C. for 30 min and then at −20° C. until the day of detection when the samples were thawed. Intracellular cAMP levels were detected using an alpha screen cAMP kit (6760635D from Perkin Elmer). The activity for each compound is compared to that of isoproterenol.

L6-myotubes = test: Glucose uptake (3H-2-deoxyglucose) in differentiated L6-myotubes; format: cell-based; details: compound 1×10^−5 M; for Emax at 10 µM: read-out: Biological example 1: glucose uptake, activity compared to that of isoproterenol; for Biological example 1: glucose uptake, activity compared to that of isoproterenol: hydrochloride
Description: as §1
Differentiated L6-myotubes were serum-starved overnight in medium containing 0.5% fatty-acid free BSA and stimulated with an agonist, with a final concentration of 1×10^−5 M. After 1 h 40 min the cells were washed with warm glucose free medium or PBS twice and another portion of agonist was added to the glucose free medium. After 20 min the cells were exposed to 50 nM ^3H-2-deoxyglucose for 10 min before washed with ice cold glucose free medium or PBS three times and lysed with 0.2 M NaOH, 400 μL/well, for 1 h at 60° C. The cell lysate was mixed with 4 mL scintillation buffer (Emulsifier Safe, Perkin Elmer) and the radioactivity was detected in a β-counter (Tri-Carb 4810TR, Perkin Elmer). The activity for each compound is compared to that of isoproterenol.

Compound: O[C@@H](c1cncc(F)c1)[C@H]1CC[C@H](Cc2ccc(Cl)cc2)N1 [Example 32, (S)-(2R,5R)-5-(4-Chlorobenzyl)pyrrolidin-2-yl)(5-fluoropyridin-3-yl) -methanol dihydrochloride]
- Emax at 10 µM [1]: < 25%
- Emax at 10 µM (L6-myotubes): > 75%

Compound: CC(=O)N(Cc1ccccc1)[C@H]1CC[C@@H](C[C@@H]2CC[C@H]([C@H](O)c3cccc(F)c3)N2)CC1 [Example 33, N-Benzyl-N-((1R,4s)-4-(((25,5R)-5-((R)-(3-fluorophenyl)(hydroxy)methyl) -pyrrolidin-2-yl)methyl)cyclohexyl)acetamide hydrochloride]
- Emax at 10 µM [1]: < 25%
- Emax at 10 µM (L6-myotubes): 50 to 75%

Compound: CC(=O)N[C@H]1CC[C@H](C[C@@H]2CC[C@H]([C@H](O)c3cccc(F)c3)N2)CC1.Cl [Example 34, N-((1S,4r)-4-(((2S,5R)-5-((R)-(3-Fluorophenyl)(hydroxy)methyl)pyrrolidin-2-yl)methyl)cyclohexyl)acetamide hydrochloride]
- Emax at 10 µM [1]: < 25%
- Biological example 1: glucose uptake, activity compared to that of isoproterenol (L6-myotubes): +++ (more than 75% of that of isoproterenol)

Compound: CC(=O)N(Cc1ccccc1)[C@H]1CC[C@@H](C[C@@H]2CC[C@H]([C@@H](O)c3cccc(F)c3)N2)CC1 [Example 35, N-Benzyl-N-((1R,4s)-4-(((2S,5R)-5-((S)-(3-fluorophenyl)(hydroxy) -methyl)pyrrolidin-2-yl)methyl)cyclohexyl)acetamide hydrochloride]
- Emax at 10 µM [1]: < 25%
- Emax at 10 µM (L6-myotubes): 25 to 50%

Compound: CC(=O)N[C@H]1CC[C@@H](C[C@@H]2CC[C@H]([C@@H](O)c3cccc(F)c3)N2)CC1 [Example 36, N-((1R,4s)-4-(((2S,5R)-5-((S)-(3-Fluorophenyl)(hydroxy)methyl)pyrrolidin-2-yl)methyl)cyclohexyl)acetamide]
- Emax at 10 µM [1]: < 25%
- Emax at 10 µM (L6-myotubes): 50 to 75%

Compound: CS(=O)(=O)N(Cc1ccccc1)[C@H]1CC[C@@H](C[C@@H]2CC[C@H]([C@H](O)c3cccc(F)c3)N2)CC1 [Example 37, N-Benzyl-N-((1R,4s)-4-(((2S,5R)-5-((R)-(3-fluorophenyl)(hydroxy)methyl) -pyrrolidin-2-yl)methyl)cyclohexyl)methanesulfonamide hydrochloride]
- Emax at 10 µM [1]: < 25%
- Emax at 10 µM (L6-myotubes): 50 to 75%

Compound: CS(=O)(=O)N[C@H]1CC[C@@H](C[C@@H]2CC[C@H]([C@H](O)c3cccc(F)c3)N2)CC1 [Example 38, N-((1R,4s)-4-(((2S,5R)-5-((R)-(3-Fluorophenyl)(hydroxy)methyl)pyrrolidin-2-yl)methyl)cyclohexyl)methanesulfonamide hydrochloride]
- Emax at 10 µM [1]: < 25%
- Emax at 10 µM (L6-myotubes): > 75%

Compound: CS(=O)(=O)N(Cc1ccccc1)[C@H]1CC[C@@H](C[C@@H]2CC[C@H]([C@@H](O)c3cccc(F)c3)N2)CC1 [Example 39, N-Benzyl-N-((1R,4s)-4-(((2S,5R)-5-((S)-(3-fluorophenyl)(hydroxy) -methyl)pyrrolidin-2-yl)methyl)cyclohexyl)methanesulfonamide hydrochloride]
- Emax at 10 µM [1]: < 25%
- Emax at 10 µM (L6-myotubes): 50 to 75%

Compound: CS(=O)(=O)N[C@H]1CC[C@@H](C[C@@H]2CC[C@H]([C@@H](O)c3cccc(F)c3)N2)CC1 [Example 40, N-((1R,4s)-4-(((2S,5R)-5-((S)-(3-fluorophenyl)(hydroxy)methyl)pyrrolidin-2-yl)methyl)cyclohexyl)methanesulfonamide hydrochloride]
- Emax at 10 µM [1]: < 25%
- Emax at 10 µM (L6-myotubes): 50 to 75%

Compound: CC(=O)N(Cc1ccccc1)[C@H]1CC[C@H](C[C@@H]2CC[C@H]([C@H](O)c3cccc(F)c3)N2)CC1 [Example 41, N-Benzyl-N-((1S,4r)-4-(((2S,5R)-5-((R)-(3-fluorophenyl)(hydroxy) -methyl)pyrrolidin-2-yl)methyl)cyclohexyl)acetamide hydrochloride]
- Emax at 10 µM [1]: < 25%
- Emax at 10 µM (L6-myotubes): 25 to 50%

Compound: CC(=O)N[C@H]1CC[C@H](C[C@@H]2CC[C@H]([C@H](O)c3cccc(F)c3)N2)CC1.Cl [Example 42, N-((1S,4r)-4-(((2S,5R)-5-((R)-(3-Fluorophenyl)(hydroxy)methyl)pyrrolidin-2-yl)methyl)cyclohexyl)acetamide hydrochloride]
- Biological example 2: intracellular cAMP levels, activity compared to that of isoproterenol [1]: − (less than 25%)
- Biological example 1: glucose uptake, activity compared to that of isoproterenol (L6-myotubes): ++ (between 75 and 50%)

Compound: CC(=O)N(Cc1ccccc1)[C@H]1CC[C@H](C[C@@H]2CC[C@H]([C@@H](O)c3cccc(F)c3)N2)CC1 [Example 43, N-Benzyl-N-((1S,4r)-4-(((2S,5R)-5-((S)-(3-fluorophenyl)(hydroxy)methyl) -pyrrolidin-2-yl)methyl)cyclohexyl)acetamide hydrochloride]
- Emax at 10 µM [1]: < 25%
- Emax at 10 µM (L6-myotubes): 50 to 75%

Compound: CC(=O)N[C@H]1CC[C@H](C[C@@H]2CC[C@H]([C@@H](O)c3cccc(F)c3)N2)CC1 [Example 44, N-((1S,4r)-4-(((2S,5R)-5-((S)-(3-Fluorophenyl)(hydroxy)methyl)pyrrolidin-2-yl)methyl)cyclohexyl)acetamide hydrochloride]
- Emax at 10 µM [1]: < 25%
- Emax at 10 µM (L6-myotubes): 50 to 75%

Compound: CS(=O)(=O)N(Cc1ccccc1)[C@H]1CC[C@H](C[C@@H]2CC[C@H]([C@H](O)c3cccc(F)c3)N2)CC1 [Example 45, N-Benzyl-N-((1S,4r)-4-(((2S,5R)-5-((R)-(3-fluorophenyl)(hydroxy) -methyl)pyrrolidin-2-yl)methyl)cyclohexyl)methanesulfonamide hydrochloride]
- Emax at 10 µM [1]: < 25%
- Emax at 10 µM (L6-myotubes): < 25%

Compound: CS(=O)(=O)N[C@H]1CC[C@H](C[C@@H]2CC[C@H]([C@H](O)c3cccc(F)c3)N2)CC1 [Example 46, N-((1S,4r)-4-(((2S,5R)-5-((R)-(3-Fluorophenyl)(hydroxy)methyl)pyrrolidin-2-yl)methyl)cyclohexyl)methanesulfonamide hydrochloride]
- Emax at 10 µM [1]: < 25%
- Emax at 10 µM (L6-myotubes): > 75%

Compound: CS(=O)(=O)N(Cc1ccccc1)[C@H]1CC[C@H](C[C@@H]2CC[C@H]([C@@H](O)c3cccc(F)c3)N2)CC1 [Example 47, N-Benzyl-N-((1S,4r)-4-(((2S,5R)-5-((S)-(3-fluorophenyl)(hydroxy) -methyl)pyrrolidin-2-yl)methyl)cyclohexyl)methanesulfonamide hydrochloride]
- Emax at 10 µM [1]: < 25%
- Emax at 10 µM (L6-myotubes): < 25%

Compound: CS(=O)(=O)N[C@H]1CC[C@H](C[C@@H]2CC[C@H]([C@@H](O)c3cccc(F)c3)N2)CC1 [Example 48, N-((1S,4r)-4-(((2S,5R)-5-((S)-(3-Fluorophenyl)(hydroxy)methyl)pyrrolidin-2-yl)methyl)cyclohexyl)methanesulfonamide hydrochloride]
- Emax at 10 µM [1]: < 25%
- Emax at 10 µM (L6-myotubes): 50 to 75%
